IC50 data for 32 compounds are collected here from patent US10328077B2 (CELGENE CORPORATION, priority 2016, dated 2019).

Structures are written as SMILES. Structures can show the parent of a compound that is named as a salt. Where two headings read alike, the source gives them in different places.

The target in assay [1] is human LSD-1 (Homo sapiens (Human), UniProt O60341). Nature of the assay: In vitro enzyme inhibition assay LSD-1 (TR-FRET). It is filed as biochemical. From the text: This assay determines the ability of a test compound to inhibit LSD-1 demethylase activity.
The enzymatic assay of LSD-1 activity is based on Time Resolved-Fluorescence Resonance Energy Transfer (TR-FRET) detection.
In general terms: TR-FRET usually uses a lanthanide donor and a delayed reading to cut background.

The subject of assay [2] is CD11b expression in THP-1 (AML) cells. The assay can be described thus: LSD-1 CD11b cellular assay (flow cytometry). Conditions: Homo sapiens, THP-1, 96 h, read-out: THP-1 IC50. Background: A flow cytometer gives signals particle by particle.
Method: To analyze LSD-1 inhibitor efficacy in cells, a CD11b flow cytometry assay was performed. […] LSD-1 test compounds were serially diluted in DMSO. The dilutions were added to each well accordingly to a final concentration of 0.2% DMSO. The cells were incubated at 37 degrees Celsius in 5% CO2 for 4 days. 250 μL of each well was transferred to a well in a 96 well round bottom plate. The plate was centrifuged at 1200 rpm at 4 degrees Celsius in a Beckman Coulter Alegra 6KR centrifuge for 5 minutes. The media was removed leaving the cells at the bottom of the wells. The cells were washed in 100 μL cold HBSS (Hank's Balanced Salt Solution) plus 2% BSA (Bovine Serum Albumin) solution and centrifuged at 1200 rpm at 4 degrees Celsius for 5 minutes. The wash was removed. […] The cells were centrifuged and washed two times in 100 μl HBSS plus 2% BSA. After the final spin the cells were resuspended in 100 μL HBSS plus 2% BSA containing 1 μg/mL DAPI (4′,6-diamidino-2-phenylindole). The cells were then analyzed by flow cytometry in a BD FACSAria machine. Cells were analyzed for CD11b expression. The percent of CD11b expressing cells for each inhibitor concentration was used to determine an IC50 curve for each compound analyzed.
The mark [3] stands for this setting: TR-FRET, H3K4me1-biotin labeled peptide.

For orientation: IC50 means the concentration at which inhibition is half-maximal. Consider `Cn1c(N2CCC(N)CC2)nc(-c2ccc(C#N)c(F)c2)c(C#CC2CCCC2)c1=O` [Example 14, 4-[2-(4-amino-piperidin-1-yl)-5-cyclopentylethynyl-1-methyl-6-oxo-1,6-dihydro-pyrimidin-4-yl]-2-fluoro-benzonitrile], for which the IC50 in assay [1] (setting [3]) and in assay [2] was less than 100 nM each time.

For the compound `CCOc1ccc(-c2c(-c3ccc(C#N)c(F)c3)nc(N3CCC(N)CC3)n(C)c2=O)cn1` [Example 94, 4-[2-(4-aminopiperidin-1-yl)-5-(6-ethoxypyridin-3-yl)-1-methyl-6-oxopyrimidin-4-yl]-2-fluorobenzonitrile], the IC50 in assay [1] (setting [3]) and in assay [2] was less than 100 nM throughout. Compound `Cc1ccc(-c2c(-c3ccc(C#N)c(F)c3)nc(N3CCC(N(C)C)CC3)n(C)c2=O)cn1` [Example 82, 4-[2-(4-dimethylamino-piperidin-1-yl)-1-methyl-5-(6-methyl-pyridin-3-yl)-6-oxo-1,6-dihydro-pyrimidin-4-yl]-2-fluoro-benzonitrile] yielded an IC50 in assay [1] (setting [3]) of less than 100 nM. For `Cn1c(N2CCC(N)CC2)nc(-c2ccc(C#N)c(F)c2)c(-c2ccc3cc[nH]c3c2)c1=O` [Example 75, 4-[2-(4-amino-piperidin-1-yl)-5-(1H-indol-6-yl)-1-methyl-6-oxo-1,6-dihydro-pyrimidin-4-yl]-2-fluoro-benzonitrile], the 50% inhibitory concentration (IC50) in assay [2] was less than 100 nM. `COc1ccc(-c2c(-c3ccc(C#N)c(F)c3)nc(N(C)C3CCNCC3)n(C)c2=O)cc1` [Example 55, 2-fluoro-4-[5-(4-methoxy-phenyl)-1-methyl-2-(methyl-piperidin-4-yl-amino)-6-oxo-1,6-dihydro-pyrimidin-4-yl]-benzonitrile] returned an IC50 in assay [1] of less than 100 nM. The compound `Cn1c(N2CCC(N)CC2)nc(-c2ccc(C#N)c(F)c2)cc1=O` [Example 108, 4-[2-(4-aminopiperidin-1-yl)-1-methyl-6-oxopyrimidin-4-yl]-2-fluorobenzonitrile] showed an IC50 in assay [1] (setting [3]) of less than 100 nM. For the compound `COc1ccc(-c2c(-c3ccc(C#N)cc3)nc(N3CCC(N)CC3)n(C)c2=O)cc1` [Example 2, 4-[2-(4-amino-piperidin-1-yl)-5-(4-methoxy-phenyl)-1-methyl-6-oxo-1,6-dihydro-pyrimidin-4-yl]-benzonitrile], in assay [2], the IC50 was less than 100 nM. In assay [1] (setting [3]), `CNC1CCN(c2nc(-c3ccc(C#N)c(F)c3)c(-c3ccc(C)nc3)c(=O)n2C)CC1` [Example 21, 2-fluoro-4-[1-methyl-2-(4-methylamino-piperidin-1-yl)-5-(6-methyl-pyridin-3-yl)-6-oxo-1,6-dihydro-pyrimidin-4-yl]-benzonitrile] returned an IC50 of less than 100 nM. The same measure, in the same setting: the figure for `COc1ccc(-c2c(-c3ccc(C#N)c(F)c3)nc(N3CCC[C@H](N)C3)n(C)c2=O)cc1F` [Example 28, 4-[2-((3S)-3-amino-piperidin-1-yl)-5-(3-fluoro-4-methoxy-phenyl)-1-methyl-6-oxo-1,6-dihydro-pyrimidin-4-yl]-2-fluoro-benzonitrile] is less than 100 nM; for `COc1ccc(-c2c(-c3ccc(C#N)c(F)c3)nc(NC3CCNCC3)n(C)c2=O)cc1` [Example 53, 2-fluoro-4-[5-(4-methoxy-phenyl)-1-methyl-6-oxo-2-(piperidin-4-ylamino)-1,6-dihydro-pyrimidin-4-yl]-benzonitrile] it is less than 100 nM; for `COc1ccc(-c2c(-c3ccc(C#N)cc3)nc(N3CCCNCC3)n(C)c2=O)cn1` [Example 62] it is less than 100 nM. Still for that read-out and setting: the figure for `COc1ccc(-c2c(-c3ccc(C#N)cc3)nc(NC[C@@H]3CCNC3)n(C)c2=O)cc1F` [Example 45, 4-{5-(3-fluoro-4-methoxy-phenyl)-1-methyl-6-oxo-2-[(3R)-(pyrrolidin-3-ylmethyl)-amino]-1,6-dihydro-pyrimidin-4-yl}-benzonitrile] is less than 100 nM. In the case of `CNC(=O)c1ccc(-c2c(-c3ccc(C#N)cc3)nc(N3CCC(N)CC3)n(C)c2=O)cc1F` [Example 40, {4-[2-(4-aminopiperidyl)-6-(4-cyanophenyl)-3-methyl-4-oxo-(3-hydropyrimidin-5-yl)]-2-fluorophenyl}-N-methylcarboxamide], in assay [1] (setting [3]), the IC50 was less than 100 nM. The same measure, in the same setting: in the case of `Cn1c(N2CCC(N)CC2)nc(-c2ccc(C#N)c(F)c2)c(-c2ccc(F)cc2)c1=O` [Example 101, 4-[2-(4-aminopiperidin-1-yl)-5-(4-fluorophenyl)-1-methyl-6-oxopyrimidin-4-yl]-2-fluorobenzonitrile] it was less than 100 nM; in that of `Cn1c(N2CCC(N)CC2)nc(-c2ccccc2)c(-c2ccc3c(ccn3C)c2)c1=O` [Example 114, 2-(4-amino-piperidin-1-yl)-3-methyl-5-(1-methyl-1H-indol-5-yl)-6-phenyl-3H-pyrimidin-4-one], greater than 10000 nM. The compound `COc1ccc(-c2c(-c3ccc(C#N)cc3)nc(NC[C@H]3CCNC3)n(C)c2=O)cc1F` [Example 44, 4-{5-(3-fluoro-4-methoxy-phenyl)-1-methyl-6-oxo-2-[(3S)-(pyrrolidin-3-ylmethyl)-amino]-1,6-dihydro-pyrimidin-4-yl}-benzonitrile] had an IC50 in assay [1] (setting [3]) of less than 100 nM.

The compound `COc1ccc(-c2c(-c3ccccc3C#N)nc(N3CCC(N)CC3)n(C)c2=O)cc1F` [Example 119, 2-[2-(4-aminopiperidin-1-yl)-5-(3-fluoro-4-methoxyphenyl)-1-methyl-6-oxopyrimidin-4-yl]benzonitrile] registered an IC50 in assay [1] (setting [3]) greater than 10000 nM. On the same count and under the same terms, the figure for `COc1ccc(-c2c(-c3ccc(C#N)c(F)c3)nc(N3CC(CN)C3)n(C)c2=O)cc1` [Example 69, 4-[2-(3-aminomethyl-azetidin-1-yl)-5-(4-methoxy-phenyl)-1-methyl-6-oxo-1,6-dihydro-pyrimidin-4-yl]-2-fluoro-benzonitrile] is less than 100 nM. The same measure, in the same setting: in the case of `COc1ccc(-c2c(-c3ccc(C#N)c(F)c3)nc(N3CCC(N)CC3)n(CC(=O)O)c2=O)cc1` [Example 15, [2-(4-amino-piperidin-1-yl)-4-(4-cyano-3-fluoro-phenyl)-5-(4-methoxy-phenyl)-6-oxo-6H-pyrimidin-1-yl]-acetic acid] it was less than 100 nM; in that of `Cn1c(N2CCC(N)CC2)nc(-c2ccc(C#N)c(F)c2)c(C#N)c1=O` [Example 19, 2-(4-amino-piperidin-1-yl)-4-(4-cyano-3-fluoro-phenyl)-1-methyl-6-oxo-1,6-dihydro-pyrimidine-5-carbonitrile], less than 100 nM; in that of `COc1ccc(-c2c(-c3cccc(C#N)c3)nc(N3CCC(N)CC3)n(C)c2=O)cc1F` [Example 118, 3-[2-(4-aminopiperidin-1-yl)-5-(3-fluoro-4-methoxyphenyl)-1-methyl-6-oxopyrimidin-4-yl]benzonitrile], greater than 10000 nM. Turning to `Cn1c(N2CCC(N)CC2)nc(-c2ccc(C#N)c(F)c2)c(-c2ccc3c(ccn3C)c2)c1=O` [Example 74, 4-[2-(4-amino-piperidin-1-yl)-1-methyl-5-(1-methyl-1H-indol-5-yl)-6-oxo-1,6-dihydro-pyrimidin-4-yl]-2-fluoro-benzonitrile], in assay [2], the IC50 is less than 100 nM. In the case of `COc1ccc(-c2c(-c3ccc(C#N)c(F)c3)nc(N3CCCNCC3)n(C)c2=O)cn1` [Example 61, 4-[2-[1,4]diazepan-1-yl-5-(6-methoxy-pyridin-3-yl)-1-methyl-6-oxo-1,6-dihydro-pyrimidin-4-yl]-2-fluoro benzonitrile], in assay [1] (setting [3]), the IC50 is less than 100 nM.

As for `COc1ncc(-c2c(-c3ccc(C#N)c(F)c3)nc(N3CCC(N)CC3)n(C)c2=O)cc1F` [Example 26, 4-[2-(4-aminopiperidyl)-5-(5-fluoro-6-methoxy(3-5,6-dihydropyridyl))-1-methyl-6-oxohydropyrimidin-4-yl]-2-fluorobenzenecarbonitrile], the concentration for half-maximal inhibition (IC50) in assay [1] (setting [3]) was less than 100 nM. Same read-out and setting: the figure for `CN(C)c1ncc(-c2c(-c3ccc(C#N)c(F)c3)nc(N3CCC(N(C)C)CC3)n(C)c2=O)cn1` [Example 81, 4-[2′-dimethylamino-2-(4-dimethylamino-piperidin-1-yl)-1-methyl-6-oxo-1,6-dihydro-[5,5′]bipyrimidinyl-4-yl]-2-fluoro-benzonitrile] is less than 100 nM. Still for that read-out and setting: the figure for `COc1ccc(-c2c(-c3ccc(C#N)c(F)c3)nc(N3CCNCC3)n(C)c2=O)cc1F` [Example 47, 2-fluoro-4-[5-(3-fluoro-4-methoxy-phenyl)-1-methyl-6-oxo-2-piperazin-1-yl-1,6-dihydro-pyrimidin-4-yl]-benzonitrile] is less than 100 nM. `Cn1c(N2CCC(N)CC2)nc(-c2ccc(C#N)c(F)c2)c(-c2ccc(C(F)(F)F)nc2)c1=O` [Example 23, 4-{2-(4-aminopiperidyl)-1-methyl-6-oxo-5-[6-(trifluoromethyl) (3-pyridyl)] hydropyrimidin-4-yl}-2-fluorobenzenecarbonitrile]: the 50% inhibitory concentration (IC50) in assay [2] was less than 100 nM.

As for `C#Cc1c(-c2ccc(C#N)c(F)c2)nc(N2CCC(N)CC2)n(C)c1=O` [Example 110], the IC50 in assay [1] (setting [3]) is less than 100 nM. Consider `Cc1ccc(-c2c(-c3ccc(C#N)cc3)nc(N3CCC(N)CC3)n(C)c2=O)cc1` [Example 1, 4-(2-(4-aminopiperidin-1-yl)-1-methyl-6-oxo-5-p-tolyl-1,6-dihydropyrimidin-4-yl)benzonitrile, HCl salt], for which the IC50 in assay [2] is less than 100 nM. In assay [1] (setting [3]), `Cn1c(N2CCC(N)CC2)nc(-c2ccc(C#N)c(F)c2)c(C#N)c1=O` [Example 121, 2-(4-amino-piperidin-1-yl)-4-(4-cyano-3-fluoro-phenyl)-1-methyl-6-oxo-1,6-dihydro-pyrimidine-5-carbonitrile] registered an IC50 of 100 to 1000 nM.

`Cn1c(N2CCC(N)CC2)nc(-c2ccc(C#N)cc2)c(-c2ccc3c(cnn3C)c2)c1=O` [Example 33, 4-[2-(4-aminopiperidyl)-1-methyl-5-(1-methyl(1H-indazol-5-yl))-6-oxohydropyrimidin-4-yl]benzenecarbonitrile]: the IC50 in assay [2] is less than 100 nM.

Consider `COc1ccc(-c2c(-c3ccc(Cl)c(F)c3)nc(N3CCC(N)CC3)n(C)c2=O)cc1` [Example 111, 2-(4-amino-piperidin-1-yl)-6-(4-chloro-3-fluoro-phenyl)-5-(4-methoxy-phenyl)-3-methyl-3H-pyrimidin-4-one], for which, in assay [2], the IC50 lay in the range of 100 to 1000 nM.
